Article PMC11494886, “Discovery and design of molecular glue enhancers of CDK12–DDB1 interactions for targeted degradation of cyclin K” (RSC Chemical Biology, 2024)

Key:
HiBiT-tagged cyclin K = test: HiBiT cyclin K degradation assay (DC50, Dmax); assay type: cell-based; conditions: HiBiT-CCNK KI A549 cells, 2 hours
Protocol: Next, we utilized HiBiT technology (Promega) for quantitative analysis of cyclin K degrader activity. […] Importantly, knockout of CDK12 using CRISPR/Cas9 protected cyclin K from SR-4835-induced degradation (Fig. 1D). We verified the depletion of CDK12 in HEK-293T cells (Fig. S3, ESI ^†).
The HiBiT-CCNK KI A549 cells (Promega) were seeded in 384 well plate and treated with the test compounds for 2 hours in a dose dependent manner. Nano-Glo® HiBiT Lytic Detection System (Promega) composed of the Nano-Glo® HiBiT Lytic Substrate, Nano-Glo® HiBiT Lytic Buffer and LgBiT Protein was used as per the manufacturer's instructions. Briefly, a 2× Nano-Glo® HiBiT Lytic Detection Reagent mixture was prepared by adding 20 μL of Nano-Glo® HiBiT Lytic Substrate and 10 μL of LgBiT protein per every 1 mL of Nano-Glo® HiBiT Lytic Buffer. After incubating the cells with the 2× Nano-Glo® HiBiT Lytic Detection Reagent mixture, luminescence was measured. HiBiT tagged cyclin K present at any given concentration was measured by normalizing the luminescence signal at that concentration to the luminescence signal from the DMSO (control) cells. The concentration necessary to achieve a 50% reduction in cyclin K levels (DC50) and the maximum achievable reduction in cyclin K levels (Dmax) was computed from this assay.

MDA-MB-231 cells = test: CellTiter-Glo viability assay, WT MDA-MB-231; assay type: cell-based; conditions: Homo sapiens; WT MDA-MB-231, 72 hours, CellTiter-Glo; read-out: EC50 cell viability
Excerpt: MDA-MB-231 (human triple-negative breast cancer cells) and HEK293T (human embryonic kidney cells) were purchased from the American type culture collection (ATCC) and maintained in Dulbecco's modified Eagle's medium (DMEM) (Gibco) supplemented with 10% (v/v) heat-inactivated fetal bovine serum (FBS) (Gibco) and penicillin/streptomycin (100 U mL^−1 each). HiBiT-CCNK KI A549 cells, purchased from Promega, were maintained in F12 medium supplemented with 10% (v/v) heat-inactivated fetal bovine serum (FBS) (Gibco) and penicillin/streptomycin (100 U mL^−1 each). DDB1-knockdown MDA-MB-231 and DDB1-knockdown HEK293T cell lines were maintained in the same media formulation as their corresponding wild-type cell lines. All cell lines were cultured at 37 °C in an incubator with CO2 levels maintained at 5%.
Cell viability was measured by Cell Titer Glo assay kit (Promega, USA). EC50 was determined from the nonlinear regression and a four-parameter algorithm on the GraphPad Prism software.

Cdk12/CycK = target: T1, Cdk12/CycK (Homo sapiens, UniProt Q9NYV4); test: Thermal stability (nanoDSF) of Cdk12/CycK; assay type: binding; conditions: Cdk12/CycK 5 μM, 3-fold molar excess of compound
T1 construct: GST (N, cleaved yes); made in house; host or cells: Sf9 insect cells (MultiBacTurbo), co-expressed with S. cerevisiae CAK1
Excerpt: Synthetic genes, codon optimized for expression in Sf9 insect cells, comprising the kinase domain of human Cdk12 (residues 714–1063, UniProt accession number Q9NYV4) and cyclin box domains of human cyclin K (residues 1–267, UniProt accession number O75909) were purchased from GeneArt. The coding sequence of Cdk12 was integrated into the pACEBac1 acceptor vector, while CycK was introduced into pIDK donor vector. Both target vectors underwent modification, wherein a GST-affinity tag followed by a tobacco etch virus (TEV) protease cleavage site was introduced upstream of the protein coding sequence. A pIDC donor vector was employed to insert full-length CDK-activating kinase CAK1 (UniProt accession number P43568) from S. cerevisiae devoid of any affinity tag. Cre recombination was performed to combine all three vectors in vitro, resulting in fused vectors suitable for co-expression in Sf9 insect cells. […]
To investigate the thermal stability of proteins and protein complexes in solution, as well as to examine the impact of small molecular compounds on the proteins stability, the nano-differential scanning fluorimetry (nanoDSF) method was employed using a Prometheus NT.48 (NanoTemper) device. […] Thermal stability was monitored over a temperature range of 20–90 °C with a linear gradient of 1.5 °C min^−1, utilizing the PR.ThermControl software (NanoTemper). […]

Cdk12/CycK and DDB1ΔB = target: T2, Cdk12/CycK and DDB1ΔB (Homo sapiens, UniProt Q16531+Q9NYV4, DEL396-705); test: GST pulldown assay, recruitment of DDB1ΔB to Cdk12/CycK; assay type: binding; conditions: GST-Cdk12/GST-CycK bait, 5 μM compound, vs DMSO
T2 construct: the Cdk12 (714–1063)/CycK (1–267) complex and the DDB1ΔB protein; made in house; host or cells: Sf9 insect cells (MultiBacTurbo)
Protocol: The pulldown assay was utilized to identify drug-triggered protein–protein interactions involving the Cdk12 (714–1063)/CycK (1–267) complex and the DDB1ΔB protein. In this assay, purified GST-tagged Cdk12 construct complexed with GST-CycK was combined with equimolar amounts of His6-tagged DDB1ΔB (5 μM) in the presence of 5 μM of the respective small molecular compound in pulldown assay buffer (50 mM Hepes pH 7.4, 200 mM NaCl, 0.25 mM TCEP, 0.05% (v/v) Tween20), ensuring a 2% total DMSO concentration. Experimental controls included samples supplemented with 2% DMSO instead of compound as well as samples devoid of the GST-tagged Cdk12/CycK complex. Each sample was individually added to approximately 50 μL of pre-equilibrated glutathione agarose beads (Thermo Fisher Scientific). The bead suspensions were then subjected to a 2 h incubation period at room temperature with gentle agitation. After incubation, the beads were pelleted by centrifugation at 700 × g for 4 min, the supernatant was discarded, and the beads were washed three-times with 100 μL of pulldown assay buffer. Following the washing step, bound proteins were eluted from the beads with 50 μL of pulldown assay buffer supplemented with 10 mM GSH for 1 h at room temperature under rotation. Subsequently, the beads were again pelleted by centrifugation at 700 × g for 4 min and the resulting supernatants containing eluted protein fractions were mixed with 6 × SDS sample buffer at a 1 : 1 (v/v) ratio. The eluted protein samples were separated by SDS-PAGE and subjected to Coomassie brilliant blue staining for visualization and analysis.

T2 sequence (Q9NYV4 714-1063, stated change not applied): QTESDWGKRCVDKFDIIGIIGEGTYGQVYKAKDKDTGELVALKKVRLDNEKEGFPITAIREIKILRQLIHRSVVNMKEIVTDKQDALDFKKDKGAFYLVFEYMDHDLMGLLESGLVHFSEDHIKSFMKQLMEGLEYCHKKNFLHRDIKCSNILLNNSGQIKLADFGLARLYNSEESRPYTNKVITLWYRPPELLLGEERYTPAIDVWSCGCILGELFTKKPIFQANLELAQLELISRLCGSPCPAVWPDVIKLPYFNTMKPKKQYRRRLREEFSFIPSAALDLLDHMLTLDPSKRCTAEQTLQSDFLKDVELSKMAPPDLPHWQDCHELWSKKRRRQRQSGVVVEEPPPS
T2 sequence (O75909 1-267 partner limits assumed): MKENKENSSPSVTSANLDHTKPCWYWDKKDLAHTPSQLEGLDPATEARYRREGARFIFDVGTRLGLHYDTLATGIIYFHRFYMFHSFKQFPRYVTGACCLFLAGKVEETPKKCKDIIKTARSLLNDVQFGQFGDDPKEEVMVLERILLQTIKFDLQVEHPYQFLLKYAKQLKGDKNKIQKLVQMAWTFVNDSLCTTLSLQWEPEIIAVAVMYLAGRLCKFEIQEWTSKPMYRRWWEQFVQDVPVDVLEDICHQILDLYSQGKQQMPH
T2 sequence (Q16531 with tags, fused parts or gaps DEL396-705): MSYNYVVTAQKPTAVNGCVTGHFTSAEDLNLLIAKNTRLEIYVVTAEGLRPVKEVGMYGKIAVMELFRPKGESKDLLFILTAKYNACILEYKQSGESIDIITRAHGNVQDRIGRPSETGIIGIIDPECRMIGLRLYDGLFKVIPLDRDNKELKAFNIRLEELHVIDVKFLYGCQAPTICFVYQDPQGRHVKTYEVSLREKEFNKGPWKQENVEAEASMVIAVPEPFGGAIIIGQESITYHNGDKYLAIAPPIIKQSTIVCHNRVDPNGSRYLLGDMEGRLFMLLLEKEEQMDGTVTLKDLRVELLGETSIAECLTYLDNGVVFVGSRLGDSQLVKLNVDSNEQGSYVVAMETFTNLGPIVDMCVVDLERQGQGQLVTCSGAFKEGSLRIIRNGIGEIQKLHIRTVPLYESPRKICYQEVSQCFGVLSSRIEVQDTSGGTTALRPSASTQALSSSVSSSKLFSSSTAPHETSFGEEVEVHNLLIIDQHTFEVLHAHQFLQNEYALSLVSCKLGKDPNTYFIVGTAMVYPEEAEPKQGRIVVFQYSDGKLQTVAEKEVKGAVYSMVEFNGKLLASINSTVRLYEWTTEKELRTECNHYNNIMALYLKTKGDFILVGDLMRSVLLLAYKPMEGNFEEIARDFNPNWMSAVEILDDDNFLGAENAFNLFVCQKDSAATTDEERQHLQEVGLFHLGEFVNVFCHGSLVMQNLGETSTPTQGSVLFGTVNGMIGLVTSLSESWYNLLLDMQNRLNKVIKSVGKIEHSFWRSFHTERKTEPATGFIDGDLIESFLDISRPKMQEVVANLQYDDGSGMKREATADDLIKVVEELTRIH
T1 sequence (Q9NYV4 714-1063): as the sequence (Q9NYV4 714-1063, stated change not applied) above
T1 sequence (O75909 1-267 partner limits assumed): as the sequence (O75909 1-267 partner limits assumed) above

Row | SMILES | Dmax (maximum reduction in cyclin K levels) (HiBiT-tagged cyclin K; vs DMSO) [%] | DC50 (HiBiT-tagged cyclin K; read-out: DC50 (concentration for 50% reduction in cyclin K levels)) [nM] | EC50 (MDA-MB-231 cells) [nM] | ΔTm (elevation of melting temperature) (Cdk12/CycK) | recruitment of DDB1ΔB in pulldown (Cdk12/CycK and DDB1ΔB) | reduction in cyclin K levels (HiBiT-tagged cyclin K; dose-response)
1 | Cn1cc(-n2cnc3c(NCc4nc5cc(Cl)c(Cl)cc5[nH]4)nc(N4CCOCC4)nc32)cn1 [SR-4835] | > 95 | ~90 | 55 | +4.1 °C | enrichment of DDB1ΔB fractions | 
2 | CN(C)C/C=C/C(=O)Nc1ccc(C(=O)N2CCC[C@@H](Nc3ncc(Cl)c(-c4c[nH]c5ccccc45)n3)C2)cc1 [THZ531, reference compound] |  |  | 72 | +4.15 °C | incapable of recruiting the DDB1ΔB protein | no reduction in cyclin K levels
